Assay results reported in PubChem BioAssay (NCI).
“And” between values parts separate entries of the source, which are not always exact repeats. Identical values can stand only once.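 Results reflect a 48-hour exposure of cells in 96-well plates to compound at five concentrations. At the GI50, growth is halved. TGI denotes the concentration required for complete inhibition of growth.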

Legend:
Assay in all cases: NCI anticancer screen, dose series, 48 h
[1] = system: MDA-MB-231 breast
[2] = system: RXF 393 renal
[3] = system: NCI-H460 lung
[4] = system: HL-60(TB) leukemia
[5] = system: SNB-75 CNS
[6] = system: SK-OV-3 ovarian
[7] = system: HCT-116 colon
[8] = system: HS 578T breast
[9] = system: EKVX NSCLC
[10] = system: UO-31 renal
[11] = system: SN12C renal

Row | Structure (SMILES) | TGI [1] | TGI [2] | TGI [3] | TGI [4] | TGI [5] | TGI [6] | TGI [7] | TGI [8] | TGI [9] | TGI [10] | TGI [11] | GI50 [2] | GI50 [3] | GI50 [5] | GI50 [6] | GI50 [4] | GI50 [11]
1 | NS(=O)(=O)c1ccc(N2C(=O)C(=O)N(c3ccccc3)C2=S)cc1 | > 100 µM | > 100 µM | > 100 µM | > 100 µM | > 100 µM | > 100 µM | > 100 µM | > 100 µM | > 100 µM | > 100 µM | > 100 µM |  |  |  |  |  | 
2 | COc1ncc(C#CC(=O)c2ccccc2)c(OC)n1 | 5.49 µM | 3.79 µM | 38 µM | 4.68 µM | 14 µM | 42.1 µM | 10.1 µM | 87 µM | 9.16 µM | 5.44 µM | 2.78 µM |  |  |  |  |  | 
3 | COc1ccc(-c2nc(SC)n(C3OC(COC(C)=O)C(OC(C)=O)C(OC(C)=O)C3OC(C)=O)c(=O)c2C#N)cc1 (stereo not given) | > 100 µM | 35.4 µM and > 100 µM | > 100 µM | > 100 µM | 57.9 µM and > 100 µM | 98.4 µM and > 100 µM | > 100 µM | > 100 µM | > 100 µM | 77.6 µM and > 100 µM | > 100 µM | 16.5 µM and > 100 µM | 80.4 µM and 14.4 µM | 22.8 µM and 65.6 µM | 34.5 µM and > 100 µM |  | 
4 | CC(C)(C)C(=O)CC(=O)C(F)(F)C(F)(F)C(F)(F)F.[Ag] | 30.1 µM | 32.4 µM | 46.9 µM | 40.8 µM | 34.6 µM | 44.5 µM | 44.1 µM | 63.8 µM | 55.3 µM | 60.4 µM | 27.6 µM |  |  |  |  |  | 
5 | COc1ccc2c(c1)C(=O)[C@@](Nc1ccc(C=O)cc1)(OC)[C@@](OC)(c1ccc([N+](=O)[O-])cc1)O2 | > 10 µM | > 10 µM | > 10 µM | > 10 µM | > 10 µM | > 10 µM | > 10 µM | > 10 µM | > 10 µM | > 10 µM | > 10 µM |  |  |  |  |  | 
6 | CC1OC(OC2C[C@](O)(C(=O)CBr)Cc3c(O)c4c(c(O)c32)C(=O)c2ccccc2C4=O)C(F)C(O)C1O (stereo not given in full) | 25.2 µM | 35.6 µM | 48.6 µM | 3.22 µM | 56.2 µM | > 100 µM | > 68 µM | > 73.4 µM | > 100 µM | 8.9 µM | > 73.3 µM |  |  |  |  |  | 
7 | COc1cc(C(=O)N(C(=S)OC23CC4CC(CC(C4)C2)C3)c2ccccc2)cc(OC)c1OC | > 100 µM | > 100 µM | > 100 µM | 45.8 µM | > 100 µM | > 100 µM | 46.4 µM | > 100 µM | 48.1 µM | 79 µM | > 100 µM |  |  |  |  |  | 
8 | O=C1CSC(c2cccc(Oc3ccccc3)c2)N1c1cccc(Cl)c1Cl (stereo not given) | > 100 µM | > 100 µM | 71.5 µM | 70.2 µM | > 100 µM | > 100 µM | 38.5 µM | 84.7 µM | 99.3 µM | > 100 µM | > 100 µM |  |  |  |  |  | 
9 | CCSc1nc(C)nc2c1sc1nc3ccccc3n12 | > 100 µM | > 100 µM | > 100 µM | > 100 µM | > 100 µM | > 100 µM | > 100 µM | 92.9 µM | > 100 µM | > 100 µM | > 100 µM |  |  |  |  |  | 
10 | COc1ccc2c(c1)OC1c3ccccc3OCC21 (stereo not given) | > 100 µM | > 100 µM | > 100 µM | > 100 µM | > 100 µM | > 100 µM | > 100 µM | > 100 µM | > 100 µM | > 100 µM | > 100 µM |  |  |  |  |  | 
11 | C=CC(C)(C)n1cc(C2=C(O)C(=O)C(c3c(CC=C(C)C)[nH]c4ccccc34)=C(O)C2=O)c2ccccc21 | 7.78 µM | 6.05 µM | 4.36 µM | 4.69 µM | 4.1 µM | 5.41 µM | 5.59 µM | 25 µM | 6.01 µM | 1.9 µM | 3.6 µM |  |  |  |  |  | 
12 | OC1(C2(c3ccc(Cl)cc3)CCCC2)c2ccccc2C2=NCCN21 (stereo not given) | 29.6 µM | 9.51 µM | 29 µM | 33.2 µM | 12.7 µM | 33.9 µM | 24.4 µM | > 100 µM | 31.6 µM | 24.1 µM | 31.5 µM |  |  |  |  |  | 
13 | Cc1c(C#N)c(N)n(C2OC(CO)C(O)C(O)C2O)c(=S)c1C#N (stereo not given) | > 100 µM | > 100 µM | > 100 µM | > 100 µM | > 100 µM | > 100 µM | > 100 µM | > 100 µM | > 100 µM | > 100 µM | > 100 µM |  |  |  |  |  | 
14 | CCOC(=O)/C=C(/C(=O)OCC)n1ccc(=O)n(CC(=O)OCC)c1=O | 4.41 µM | 2.52 µM | 15.1 µM | 0.483 µM | 7.92 µM | 27.6 µM | 2.57 µM | 26.4 µM | 4.87 µM | 3.03 µM | 4.61 µM |  |  |  |  | 0.191 µM | 2 µM
15 | C[C@H]1[C@H](C)CC[C@]2(C(=O)OC3OC(CO)C(O)C(O)C3O)CC[C@]3(C)C(=CC[C@@H]4[C@@]5(C)C[C@@H](O)[C@@H]6OC(=O)c7cc(O)c(O)c(O)c7-c7c(cc(O)c(O)c7O)C(=O)OC[C@]6(CO)[C@@H]5CC[C@]43C)[C@H]12 (stereo not given in full) | 26.4 µM | > 100 µM | > 100 µM | 87.8 µM | > 100 µM | > 100 µM | > 100 µM | > 100 µM | > 100 µM | > 100 µM | > 100 µM |  |  |  |  |  | 
16 | C(/C=C/Nc1ccc(-c2ccccc2)cc1)=Nc1ccc(-c2ccccc2)cc1 | > 100 µM | > 100 µM | > 100 µM | > 100 µM | > 100 µM | > 100 µM | > 100 µM | > 100 µM | > 100 µM | > 100 µM | > 100 µM |  |  |  |  |  | 
17 | Fc1cc2nc3n(c2cc1F)C(c1c(Cl)cccc1Cl)SC3 (stereo not given) | 34.6 µM | 28.5 µM | 26.6 µM | 70.9 µM | 26.8 µM | 30.6 µM | 25.2 µM | 53.2 µM | 32.5 µM | 29.3 µM | 29.8 µM |  |  |  |  |  | 
18 | Cc1ccc(N2C3=C(CC4=C2CC(C)(C)CC4=O)C(=O)CC(C)(C)C3)cc1 | > 100 µM | > 100 µM | > 100 µM | > 100 µM | 82.6 µM | > 100 µM | > 100 µM | > 100 µM | > 100 µM | > 100 µM | > 100 µM |  |  |  |  |  | 
19 | COC(=O)[C@]1(Cc2ccc3ccccc3c2)CCCCCCN1C(=O)c1ccccc1 | > 53.5 µM | > 47.5 µM | > 50.2 µM | > 40.4 µM | 54.7 µM | > 89.8 µM | > 44.1 µM | > 56.1 µM | > 50.9 µM | > 39.9 µM | > 51.5 µM |  |  |  |  |  | 
